{"source": "paper PMC3930709", "about": "“Selective Activation of hTRPV1 by N-Geranyl Cyclopropylcarboxamide, an Amiloride-Insensitive Salt Taste Enhancer” (PLoS ONE, 2014)", "key": {"hTRPV1": {"biological_target": "T1, hTRPV1 (Homo sapiens, UniProt Q8NER1)", "T1 construct": "expressed in transfected cells; host or cells: HEK293T", "T1 sequence (Q8NER1 whole entry)": "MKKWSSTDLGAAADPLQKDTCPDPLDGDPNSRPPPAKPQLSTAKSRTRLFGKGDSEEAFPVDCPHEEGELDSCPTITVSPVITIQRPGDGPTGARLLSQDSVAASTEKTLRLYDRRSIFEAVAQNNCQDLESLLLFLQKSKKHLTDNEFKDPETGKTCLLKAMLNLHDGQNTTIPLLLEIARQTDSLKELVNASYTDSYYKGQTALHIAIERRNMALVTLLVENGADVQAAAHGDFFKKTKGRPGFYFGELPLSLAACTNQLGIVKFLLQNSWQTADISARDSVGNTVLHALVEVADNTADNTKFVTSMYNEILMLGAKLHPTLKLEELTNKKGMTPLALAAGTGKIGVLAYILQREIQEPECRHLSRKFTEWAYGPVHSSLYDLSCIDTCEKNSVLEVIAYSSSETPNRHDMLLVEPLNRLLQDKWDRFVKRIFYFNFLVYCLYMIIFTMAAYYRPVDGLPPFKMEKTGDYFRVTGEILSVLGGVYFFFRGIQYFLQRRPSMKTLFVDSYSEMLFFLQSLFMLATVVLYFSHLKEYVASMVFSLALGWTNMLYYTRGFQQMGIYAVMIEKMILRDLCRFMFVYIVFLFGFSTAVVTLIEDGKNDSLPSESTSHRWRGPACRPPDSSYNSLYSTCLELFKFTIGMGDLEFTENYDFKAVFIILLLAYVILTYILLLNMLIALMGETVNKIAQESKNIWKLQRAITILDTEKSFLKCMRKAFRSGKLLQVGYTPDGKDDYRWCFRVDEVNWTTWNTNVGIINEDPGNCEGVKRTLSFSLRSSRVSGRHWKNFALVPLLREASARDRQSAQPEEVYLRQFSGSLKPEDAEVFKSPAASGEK", "experiment": "Measurement of Ca2+ influx (Fluo-4 AM, FlexStation III) in hTRPV1-expressing cells", "type": "cell-based", "method": "hTRPV1 was constructed by amplification of the hTRPV1 region (NCBI accession number: NG_029716.1) and cloned into pEAK10 vector (Edge Biosystems, Gaithersburg, MD, USA). The hTRPV1 construct was amplified by PCR and the nucleotide sequence of the hTRPV1 gene was confirmed by sequencing with an ABI 3130 DNA genetic analyzer (Applied Biosystems, Foster City, CA, USA). […] After 6 h, transfected cells were seeded onto 96-well black-wall plate (BD Falcon Labware, Franklin Lakes, NJ, USA) for 18–26 h prior to their use in an experiment. The ligand-induced changes on cytosolic Ca^2+ level were monitored by a FlexStation III microplate reader (Molecular Devices). Fluo-4 AM (5 µM, Molecular Probes, Eugene, OR, USA) in assay buffer was loaded to the cells in 96-well black-wall plates for 30 min at 27°C. After dye treatment, each chemical was added to each well at 17 s and changes on intracellular Ca^2+ level were monitored by relative fluorescence units (ΔRFU, Ex = 485 nm; Em = 516 nm) for 120 s. […] The responses from at least three wells receiving the same stimulus were averaged. Plots of amplitude versus concentration were fitted using the Hill equation."}, "hTRPA1": {"biological_target": "T2, hTRPA1 (Homo sapiens, UniProt O75762)", "T2 construct": "expressed in transfected cells", "T2 sequence (O75762 whole entry)": "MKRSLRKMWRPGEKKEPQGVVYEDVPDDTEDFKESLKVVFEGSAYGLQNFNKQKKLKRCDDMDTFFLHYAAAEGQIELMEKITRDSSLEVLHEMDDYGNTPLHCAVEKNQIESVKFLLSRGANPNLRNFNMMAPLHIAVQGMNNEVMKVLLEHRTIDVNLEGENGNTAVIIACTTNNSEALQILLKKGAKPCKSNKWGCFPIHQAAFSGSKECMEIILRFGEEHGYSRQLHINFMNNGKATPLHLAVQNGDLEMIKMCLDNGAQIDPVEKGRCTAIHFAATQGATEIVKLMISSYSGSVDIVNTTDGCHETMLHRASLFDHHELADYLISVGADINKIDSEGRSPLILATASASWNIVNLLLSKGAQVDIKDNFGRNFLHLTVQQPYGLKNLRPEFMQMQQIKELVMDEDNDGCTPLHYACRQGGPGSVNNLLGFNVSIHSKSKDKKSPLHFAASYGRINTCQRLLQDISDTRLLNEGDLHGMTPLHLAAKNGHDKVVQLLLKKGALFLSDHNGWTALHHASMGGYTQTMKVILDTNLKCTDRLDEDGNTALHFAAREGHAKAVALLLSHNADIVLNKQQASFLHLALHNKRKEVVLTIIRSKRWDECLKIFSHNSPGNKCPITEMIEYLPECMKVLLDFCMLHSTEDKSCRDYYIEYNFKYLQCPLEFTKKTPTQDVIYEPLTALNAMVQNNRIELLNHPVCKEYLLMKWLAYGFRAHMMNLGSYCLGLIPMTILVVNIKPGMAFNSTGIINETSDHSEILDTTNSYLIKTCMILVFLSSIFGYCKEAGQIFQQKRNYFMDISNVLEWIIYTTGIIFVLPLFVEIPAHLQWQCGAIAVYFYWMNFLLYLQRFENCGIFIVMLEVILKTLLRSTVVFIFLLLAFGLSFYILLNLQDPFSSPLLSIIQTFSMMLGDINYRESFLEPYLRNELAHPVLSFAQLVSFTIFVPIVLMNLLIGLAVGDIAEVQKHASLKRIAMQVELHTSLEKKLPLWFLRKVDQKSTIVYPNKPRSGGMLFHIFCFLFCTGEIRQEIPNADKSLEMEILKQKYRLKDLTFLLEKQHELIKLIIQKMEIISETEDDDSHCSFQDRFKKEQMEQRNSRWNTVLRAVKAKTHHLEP", "experiment": "Whole-cell patch clamp recording, cells stably expressing hTRPA1", "type": "cell-based", "details": "NGCC 10^3 µM", "method": "Flp-In 293 cell lines stably expressing hTRPA1constructed as previously reported was a gift from the professor Takumi Misaka at University of Tokyo. The hTRPA1-expressing cells were cultured in DMEM containing 10% FBS and 0.02% hygromycin B (Invitrogen). Flp-In 293 cell lines were maintained in DMEM containing 10% FBS. All cells were incubated at 37°C in a humidified atmosphere of 5% CO2.\nThe whole-cell configuration was used to voltage-clamp at room temperature (22–25°C). Electrodes pulled from glass micropipette capillaries (Sutter Instrument) had resistances of 2–2.5 MΩ, and series resistance errors were compensated >60%. Fast and slow capacitances were compensated before the application of test-pulse. Recordings were performed using aHEKAEPC-10 amplifier with pulse software (HEKA Elektronik). The pipette solution contained: 140 mM KCl, 5 mM MgCl2, 10 mM HEPES, 0.1 mM 1,2-bis(2-aminophenoxy) ethane N,N,N’,N’-tetraacetic acid(BAPTA), 3 mM Na2ATP, and 0.1 mM Na3GTP, adjusted to pH 7.4 with KOH. The external Ringer’s solution used for recording TRPV1 and TRPA1 currents contained: 150 mM NaCl, 5 mM KCl, 1 mM MgCl2, 2 mM EGTA, 10 mM Glucose, and 10 mM HEPES, adjusted to pH 7.4 with NaOH. TRPV1 and TRPA1 currents were recorded by holding the cell at −80 mV. The external Ringer’s solution used for recording ASIC current contained: 160 mM NaCl, 5 mM KCl, 1 mM MgCl2, 2 mM CaCl2, and 10 mM HEPES, adjusted to pH 7.4 with tetramethylammonium hydroxide. For acidic solution of pH 6.0, HEPES was replaced with MES. ASIC currents were recorded by holding the cell at −70 mV. Reagents were obtained as follows: BAPTA, Na2ATP, Na3GTP, EGTA, and tetramethylammonium hydroxide (Sigma), HEPES (Calbiochem), MES (Alfa Aesar), and other chemicals (Merck)."}, "mASIC1a": {"biological_target": "T3, mASIC1a (Mus musculus, UniProt Q6NXK8)", "T3 construct": "expressed in transfected cells; host or cells: HEK293T (cDNA gift from John A. Wemmie, University of Iowa)", "T3 sequence (Q6NXK8 1-526)": "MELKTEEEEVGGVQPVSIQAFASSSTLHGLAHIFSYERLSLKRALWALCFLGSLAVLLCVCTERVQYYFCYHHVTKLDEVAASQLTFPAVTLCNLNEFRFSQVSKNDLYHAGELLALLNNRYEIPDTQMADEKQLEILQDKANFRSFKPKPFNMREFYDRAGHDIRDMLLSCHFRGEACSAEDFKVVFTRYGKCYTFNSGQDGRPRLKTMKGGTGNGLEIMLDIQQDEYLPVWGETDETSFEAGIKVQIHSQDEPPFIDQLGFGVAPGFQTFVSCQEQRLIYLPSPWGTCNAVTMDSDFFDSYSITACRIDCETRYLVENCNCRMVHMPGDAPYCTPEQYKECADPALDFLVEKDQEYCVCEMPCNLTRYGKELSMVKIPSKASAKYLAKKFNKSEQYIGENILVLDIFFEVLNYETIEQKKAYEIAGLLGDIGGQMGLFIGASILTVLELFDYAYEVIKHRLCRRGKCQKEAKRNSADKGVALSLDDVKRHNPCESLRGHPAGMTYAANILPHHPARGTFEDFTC", "experiment": "Whole-cell patch clamp recording, mASIC1a-expressing HEK293T cells", "type": "cell-based", "details": "NGCC 1 mM; holding -70 mV; n = 5", "method": "Mouse ASIC1a (mASIC1a) was a kind gift from John A. Wemmie (University of Iowa, IA, USA). For electrophysiological experiments, HEK293T cells were cultured in DMEM supplemented with 10% FBS and 0.2% penicillin/streptomycin and transiently transfected using Lipofectamine 2000 (Invitrogen) with various cDNAs. For TRPV1 channel expression, cells were transfected with hTRPV1, for ASIC1a homomeric channel expression, cells were transfected with mASIC1a. When needed, 0.1–0.2 µg of cDNA encoding tetrameric red fluorescence protein (DsRed) was co-transfected with the cDNA as a marker for successfully transfected cells. For non-transfected cells, cells were transfected with 0.1–0.2 µg of cDNA encoding DsRed alone. The next day, cells were plated onto poly-L-lysine-coated coverslip chips, and fluorescent cells were studied within 1–2 days.\nThe whole-cell configuration was used to voltage-clamp at room temperature (22–25°C). Electrodes pulled from glass micropipette capillaries (Sutter Instrument) had resistances of 2–2.5 MΩ, and series resistance errors were compensated >60%. Fast and slow capacitances were compensated before the application of test-pulse. Recordings were performed using aHEKAEPC-10 amplifier with pulse software (HEKA Elektronik). […] TRPV1 and TRPA1 currents were recorded by holding the cell at −80 mV. […] ASIC currents were recorded by holding the cell at −70 mV. […]"}, "NaCl taste perception": {"system": "NaCl taste perception", "parameters": "method as in PMID 23221408", "details": "NGCC 5 and 10 µM; cited from earlier work"}, "[1]": {"system": "amiloride-insensitive salt taste pathway", "parameters": "method as in PMID 23221408", "details": "WT and TRPV1 KO mice, electrophysiological studies; cited from earlier work"}}, "note": "Several values for one entry are separate records, joined by “and”; a condition that tells them apart may be missing. Equal entries are not always repeated."}
{"compound": "CC(C)=CCC/C(C)=C/CNC(=O)C1CC1", "note": "[NGCC, N-geranylcyclopropylcarboxamide]", "values": [{"measurement": "EC50", "setting": "hTRPV1; hTRPV1-expressing HEK293T cells, Hill fit", "value": "115 µM and ~115 µM"}, {"measurement": "increase in [Ca2+]i relative to capsaicin", "setting": "hTRPV1; hTRPV1-expressing cells", "value": "significantly smaller increase"}, {"measurement": "inward current in hTRPA1-expressing cells", "setting": "hTRPA1; AITC 100 µM, holding -80 mV", "value": "induced an inward current"}, {"measurement": "amplitude of current compared with AITC (100 µM)", "setting": "hTRPA1; same cell", "value": "bigger than that of AITC"}, {"measurement": "activation of ASIC1a homomeric channels", "setting": "mASIC1a", "value": "not sensitive"}, {"measurement": "effect on NaCl taste in human sensory studies", "setting": "NaCl taste perception", "value": "significant enhancement in NaCl taste"}, {"measurement": "effect on the amiloride-insensitive salt taste pathway", "setting": "[1]", "value": "produced biphasic effects"}]}
